US9012611B2, “Use of 3,8,12,14, 17,20-oxo-substituted pregnene glycosides in the preparation of healthcare products, food additives and pharmaceuticals for the inhibition of appetite” (Institute of Materia Medica, Chinese Academy of Sciences, priority 2010, dated 2015)
Where a name gives a salt, the structure may show the parent alone.

Tests used:
[1] = test system: female Wistar rat; assay: Animal test in vivo: average food consumption (appetite inhibition); details: positive control 15 mg/kg
Description: (§1) 6-7 weeks-old female Wistar rat (purchased from Shanghai Laboratory Animal Center of Chinese Academy of Sciences)(weight: 110-150 g) was raised alone in suspended metal cage. After the experimental rat was obtained, it was checked to make sure whether they were abnormal or had obvious disease signs. The rat can freely obtain the drinking-water and feed for rodent (RM1(E)AQC). The feeding cage was controlled to receive 12 h illumination (from 07:00 to 19:00) and to be in a dark environment for 12 h, and the room temperature and relative humidity were controlled to be 21±3° C. and 55±15% respectively and not to deviate the upper and lower limit. The rats were randomly divided into groups depending on the body weight according to random number table to make the average weight in each group are approximately equal. Before the test, the rats were pre-trained suitably for one week (from −7th day to −1st day) during which the consumptions of feed and drinking water were recorded.
(§2) Each group of drug to be tested, positive control group, and blank control group consisted of 5 rats, respectively. The tested drug and positive control drug were mixed with wheaten starch before the administration and formulated to suspension with required doses according to 10 mL/kg of administration volume. The positive control drug was sibutramine hydrochloride and the administration dosage was 15 mg/kg body weight. In the blank control group, only equal amount of starch was used to formulate suspension for administration by […] in a same volume. The administration time is the 1st day, 2nd day and 3rd day. The body weight of the rat, the consumption of the feed (the weight of the feeding hopper) and consumption of the drinking water (bottle weight) were recorded from the −7th day to the 7th day.

[2] = Animal test in vivo: average body weight; parameters: species or system rat; details: positive control 15 mg/kg
Description: as §1, §2

CC(C)CC(N(C)C)C1(c2ccc(Cl)cc2)CCC1 (centres unmarked) [Positive control, sibutramine hydrochloride, reference compound]
Average food consumptions ([1]; 1st day (administration day), Table 1, crude extract 300 mg/kg, others 50 mg/kg): 5.0 g
Average food consumptions ([1]; 1st day (administration day), Table 4, wilfosides 50 mg/kg): 4 g
Average food consumptions ([1]; 2nd day (administration day), Table 1, crude extract 300 mg/kg, others 50 mg/kg): 8.5 g
Average food consumptions ([1]; 2nd day (administration day), Table 4, wilfosides 50 mg/kg): 7.6 g
Average food consumptions ([1]; 3rd day (administration day), Table 1, crude extract 300 mg/kg, others 50 mg/kg): 13.0 g
Average food consumptions ([1]; 3rd day (administration day), Table 4, wilfosides 50 mg/kg): 8.4 g
Average food consumptions ([1]; 4th day (after administration on days 1-3), Table 1, crude extract 300 mg/kg, others 50 mg/kg): 14.0 g
Average food consumptions ([1]; 4th day (after administration on days 1-3), Table 4, wilfosides 50 mg/kg): 10 g
Average food consumptions ([1]; 5th day (after administration on days 1-3), Table 1, crude extract 300 mg/kg, others 50 mg/kg): 13.5 g
Average food consumptions ([1]; 5th day (after administration on days 1-3), Table 4, wilfosides 50 mg/kg): 12.8 g
Average food consumptions ([1]; 6th day (after administration on days 1-3), Table 1, crude extract 300 mg/kg, others 50 mg/kg): 14.5 g
Average food consumptions ([1]; 6th day (after administration on days 1-3), Table 4, wilfosides 50 mg/kg): 14.4 g
Average food consumptions ([1]; 7th day (after administration on days 1-3), Table 1, crude extract 300 mg/kg, others 50 mg/kg): 17.5 g
Average food consumptions ([1]; 7th day (after administration on days 1-3), Table 4, wilfosides 50 mg/kg): 14.8 g
Average food consumptions ([1]; −1st day (before administration), Table 1, crude extract 300 mg/kg, others 50 mg/kg): 14.5 g
Average food consumptions ([1]; −1st day (before administration), Table 4, wilfosides 50 mg/kg): 13.2 g
Average food consumptions ([1]; −2nd day (before administration), Table 1, crude extract 300 mg/kg, others 50 mg/kg): 14.5 g
Average food consumptions ([1]; −2nd day (before administration), Table 4, wilfosides 50 mg/kg): 16 g
Average food consumptions ([1]; −3rd day (before administration), Table 1, crude extract 300 mg/kg, others 50 mg/kg): 15.5 g
Average food consumptions ([1]; −3rd day (before administration), Table 4, wilfosides 50 mg/kg): 12.8 g
Average food consumptions ([1]; −4th day (before administration), Table 1, crude extract 300 mg/kg, others 50 mg/kg): 14.5 g
Average food consumptions ([1]; −4th day (before administration), Table 4, wilfosides 50 mg/kg): 12.8 g
Average food consumptions ([1]; −5th day (before administration), Table 1, crude extract 300 mg/kg, others 50 mg/kg): 14.5 g
Average food consumptions ([1]; −5th day (before administration), Table 4, wilfosides 50 mg/kg): 14.8 g
Average food consumptions ([1]; −6th day (before administration), Table 1, crude extract 300 mg/kg, others 50 mg/kg): 15.3 g
Average food consumptions ([1]; −6th day (before administration), Table 4, wilfosides 50 mg/kg): 10.8 g
Average food consumptions ([1]; −7th day (before administration), Table 1, crude extract 300 mg/kg, others 50 mg/kg): 11.5 g
Average food consumptions ([1]; −7th day (before administration), Table 4, wilfosides 50 mg/kg): 10.4 g
Average body weight ([2]; 1st day (administration day), Table 3, crude extract 300 mg/kg, others 50 mg/kg): 142.4 g
Average body weight ([2]; 1st day (administration day), Table 6, wilfosides 50 mg/kg): 133.2 g
Average body weight ([2]; 2nd day (administration day), Table 3, crude extract 300 mg/kg, others 50 mg/kg): 140 g
Average body weight ([2]; 2nd day (administration day), Table 6, wilfosides 50 mg/kg): 128.4 g
Average body weight ([2]; 3rd day (administration day), Table 3, crude extract 300 mg/kg, others 50 mg/kg): 141.6 g
Average body weight ([2]; 3rd day (administration day), Table 6, wilfosides 50 mg/kg): 128.4 g
Average body weight ([2]; 4th day (after administration on days 1-3), Table 3, crude extract 300 mg/kg, others 50 mg/kg): 146.8 g
Average body weight ([2]; 4th day (after administration on days 1-3), Table 6, wilfosides 50 mg/kg): 132.4 g
Average body weight ([2]; 5th day (after administration on days 1-3), Table 3, crude extract 300 mg/kg, others 50 mg/kg): 148.4 g
Average body weight ([2]; 5th day (after administration on days 1-3), Table 6, wilfosides 50 mg/kg): 135.6 g
Average body weight ([2]; 6th day (after administration on days 1-3), Table 3, crude extract 300 mg/kg, others 50 mg/kg): 153.6 g
Average body weight ([2]; 6th day (after administration on days 1-3), Table 6, wilfosides 50 mg/kg): 138.4 g
Average body weight ([2]; 7th day (after administration on days 1-3), Table 3, crude extract 300 mg/kg, others 50 mg/kg): 158.8 g
Average body weight ([2]; 7th day (after administration on days 1-3), Table 6, wilfosides 50 mg/kg): 142 g
Average body weight ([2]; −1st day (before administration), Table 3, crude extract 300 mg/kg, others 50 mg/kg): 154.8 g
Average body weight ([2]; −1st day (before administration), Table 6, wilfosides 50 mg/kg): 145.6 g
Average body weight ([2]; −2nd day (before administration), Table 3, crude extract 300 mg/kg, others 50 mg/kg): 152.8 g
Average body weight ([2]; −2nd day (before administration), Table 6, wilfosides 50 mg/kg): 144.4 g
Average body weight ([2]; −3rd day (before administration), Table 3, crude extract 300 mg/kg, others 50 mg/kg): 152 g
Average body weight ([2]; −3rd day (before administration), Table 6, wilfosides 50 mg/kg): 140.8 g
Average body weight ([2]; −4th day (before administration), Table 3, crude extract 300 mg/kg, others 50 mg/kg): 149.6 g
Average body weight ([2]; −4th day (before administration), Table 6, wilfosides 50 mg/kg): 138 g
Average body weight ([2]; −5th day (before administration), Table 3, crude extract 300 mg/kg, others 50 mg/kg): 145.6 g
Average body weight ([2]; −5th day (before administration), Table 6, wilfosides 50 mg/kg): 135.6 g
Average body weight ([2]; −6th day (before administration), Table 3, crude extract 300 mg/kg, others 50 mg/kg): 144.8 g
Average body weight ([2]; −6th day (before administration), Table 6, wilfosides 50 mg/kg): 132.8 g
Average body weight ([2]; −7th day (before administration), Table 3, crude extract 300 mg/kg, others 50 mg/kg): 140.4 g
Average body weight ([2]; −7th day (before administration), Table 6, wilfosides 50 mg/kg): 132 g
